Experimental data reported in paper PMC11374673, “Discovery of isoquinoline sulfonamides as allosteric gyrase inhibitors with activity against fluoroquinolone-resistant bacteria” (Nature Chemistry, 2024).
In brackets after ≈: the same amount, converted by molar mass. Read-outs that look alike come from different tables or passages of the source.

Columns and labels:
[1] = system: E. coli W3110; test: MIC by broth microdilution; type: cell-based, Escherichia coli; details: for MIC: broth microdilution, read-out: MIC E. coli W3110; for antimicrobial activity: relative to parent compound
Method: (§1) MIC was determined by broth microdilution. Single-colony cultures were grown to exponential phase (OD600 of 0.5) aerobically at 37 °C. In case of strains from the Keio collection, 50 µg ml^−1 kanamycin was supplemented to the media to ascertain a homogeneous population. The bacterial suspensions were diluted 100-fold in CAMHB and 50 µl was added to a twofold serial dilution series of test compounds (50 µl per well) in polypropylene 96-well microtitre plates to reach a volume of 100 µl. The plates were sealed with breathable membranes and incubated overnight at 37 °C with constant shaking (600 r.p.m.).

[2] = system: K. pneumoniae ATCC 29665; test: MIC by broth microdilution; type: cell-based, Klebsiella pneumoniae; details: read-out: MIC K. pneumoniae ATCC 29665
Method: as §1

[3] = system: E. coli BW25113; test: Bacterial cytological profiling (BCP); type: cell-based, Escherichia coli; details: BCP; for DIC angularity: 2 h, AMP 12.5, RIF 12.5, TET 6.25, CIP 0.0625, LEI-801 6.25, LEI-800 6.25 µM, average ± SD of 3 replicates; for DAPI intensity / SYTOX Green intensity: standardized to DMSO control
Method: Overnight E. coli BW25113 cultures were diluted 1:100 in fresh LB medium in a 100 ml Erlenmeyer flask and incubated at 120 r.p.m. and 37 °C. When OD600 >0.2, the cultures were diluted to OD600 of 0.1 in fresh LB medium with a final volume of 200 µl in a 2 ml Eppendorf tube. The appropriate antibiotic or control treatment was applied and the samples were incubated at 200 r.p.m. and 30 °C for 2 h. Subsequently, 4,6-diamidino-2-phenylindole (DAPI) (2 µg ml^−1), FM4-64 (2 µg ml^−1) and SYTOX Green (0.5 µM) were added to reach the desired concentration and the samples were incubated a further 10 min. The samples were then centrifuged at 3,300g for 50 s and the pellets resuspended in half the original volume. From this suspension, 5 µl was spotted onto a 2.0% agarose pad for microscopy.
Microscopy was performed on a Zeiss Axio Observer Z1/7 inverted microscope.
For the qualitative assessment of the bacterial morphology, the acquired images were first pre-processed in ImageJ (v1.53m)[47]. Thereafter the brightness and contrast were adjusted to allow the clearest visual inspection of the particular phenotype. For the quantitative BCP, DIC images were first pre-processed and then a random forest classifier was trained with Illastik (v1.3.3)[48] to generate a segmented image. These binary masks were then combined together with the original DIC image and processed with the ImageJ plugin MicrobeJ (v 5.13l)[49]. MicrobeJ generated cell outlines and performed measurements on cell shape accordingly. The recorded cell outlines produced by MicrobeJ were exported and used as a guide to characterize the DNA shape within each bacterium using a custom-made ImageJ macro (Appendix II). DAPI and SYTOX Green intensity were measured on raw images in a similar manner. Then, by hand, polygons were drawn that excluded bacteria to determine background intensity. After background correction the intensity was standardized to the DMSO control within the same biological replicate. For PCA, the BCP assay was executed for three independently biological replicates. During each experiment, images were acquired until 24 or more bacteria in total had been observed. Following feature extraction for each replicate, principal component analysis was performed using GraphPad Prism (v9.0.0) using multiple variable analysis with standardized data. Principal components (PCs) were selected based on the per cent of total explained variance (minimum 80%).

[4] = Klebsiella pneumoniae, ATCC29665, broth microdilution

Compound: O=S(=O)(NCCNCc1ccc(-c2ccccc2)c(Cl)c1)c1cccc2cnccc12 [Compound 84]
- MIC ([1]; Escherichia coli, W3110, WT): > 50 µM
- MIC ([1]; WT): >50 µM
- MIC [2, 4]: > 50 µM
- MIC ([2]; broth microdilution): >50 µM

Compound: O=S(=O)(NCCNCc1ccc(-c2cccnc2)c(F)c1)c1cccc2cnccc12 [Compound 87]
- MIC ([1]; Escherichia coli, W3110, WT): 25 µM (≈ 10.9 µg/mL)
- MIC [2, 4]: 50 µM (≈ 21.8 µg/mL)

Compound: O=S(=O)(NCCNCc1ccc(-c2cccc(C(F)(F)F)c2)cc1)c1cccc2cnccc12 [Compound 69]
- MIC ([1]; Escherichia coli, W3110, WT): 25 µM (≈ 12.1 µg/mL)
- MIC [2, 4]: > 50 µM
- MIC ([2]; broth microdilution): >50 µM

Compound: N#Cc1cccc(-c2ccc(CNCCNS(=O)(=O)c3cccc4cnccc34)cc2)c1 [Compound 68]
- MIC ([1]; Escherichia coli, W3110, WT): 12.5 µM (≈ 5.53 µg/mL)
- MIC [2, 4]: 25 µM (≈ 11.1 µg/mL)

Compound: O=C(NCCNCc1ccc(-c2cccnc2)cc1)c1cccc2cnccc12 [Compound 91]
- MIC ([1]; Escherichia coli, W3110, WT): > 50 µM
- MIC ([1]; WT): >50 µM
- antimicrobial activity [1]: loss of activity
- MIC [2, 4]: > 50 µM
- MIC ([2]; broth microdilution): >50 µM

Compound: O=S(=O)(NCCNCc1ccc(-c2ccc(C(F)(F)F)cc2)cc1)c1cccc2cnccc12 [Compound 64]
- MIC ([1]; Escherichia coli, W3110, WT): > 50 µM
- MIC ([1]; WT): >50 µM
- MIC [2, 4]: > 50 µM
- MIC ([2]; broth microdilution): >50 µM

Compound: O=S(=O)(NCCNCc1ccc(-c2ccc(F)cc2)c(F)c1)c1cccc2cnccc12 [Compound 90]
- MIC ([1]; Escherichia coli, W3110, WT): 12.5 µM (≈ 5.67 µg/mL)
- MIC [2, 4]: 12.5 µM (≈ 5.67 µg/mL)

Compound: Cc1ccccc1-c1ccc(CNCCNS(=O)(=O)c2cccc3cnccc23)cc1 [Compound 71]
- MIC ([1]; Escherichia coli, W3110, WT): 12.5 µM (≈ 5.39 µg/mL)
- MIC [2, 4]: 50 µM (≈ 21.6 µg/mL)

Compound: COc1ccccc1-c1ccc(CNCCNS(=O)(=O)c2cccc3cnccc23)cc1 [Compound 73]
- MIC ([1]; Escherichia coli, W3110, WT): 25 µM (≈ 11.2 µg/mL)
- MIC [2, 4]: 50 µM (≈ 22.4 µg/mL)

Compound: O=S(=O)(NCCNCc1ccc(-c2ccc(F)nc2)nc1)c1cccc2cnccc12 [Compound 81]
- MIC ([1]; Escherichia coli, W3110, WT): > 50 µM
- MIC ([1]; WT): >50 µM
- MIC [2, 4]: > 50 µM
- MIC ([2]; broth microdilution): >50 µM

Compound: O=S(=O)(NCCOCc1ccc(-c2cccnc2)cc1)c1cccc2cnccc12 [Compound 94]
- MIC ([1]; Escherichia coli, W3110, WT): > 50 µM
- MIC ([1]; WT): >50 µM
- antimicrobial activity [1]: abolished all activity
- MIC [2, 4]: > 50 µM
- MIC ([2]; broth microdilution): >50 µM

Compound: O=S(=O)(NCCNCc1ccc(-c2ccccc2)nc1)c1cccc2cnccc12 [Compound 80]
- MIC ([1]; Escherichia coli, W3110, WT): > 50 µM
- MIC ([1]; WT): >50 µM
- MIC [2, 4]: > 50 µM
- MIC ([2]; broth microdilution): >50 µM

Compound: O=S(=O)(NCCNCc1ccc(-c2ccncc2)cc1)c1cccc2cnccc12 [Compound 65]
- MIC ([1]; Escherichia coli, W3110, WT): 12.5 µM (≈ 5.23 µg/mL)
- MIC [2, 4]: 25 µM (≈ 10.5 µg/mL)

Compound: O=S(=O)(NCCNCc1ccc(-c2ccc(Cl)c(Cl)c2)cc1)c1cccc2cnccc12 [Compound 74]
- MIC ([1]; Escherichia coli, W3110, WT): 25 µM (≈ 12.2 µg/mL)
- MIC [2, 4]: > 50 µM
- MIC ([2]; broth microdilution): >50 µM

Compound: O=S(=O)(NCCNCc1ccc(-c2ccc3ccccc3c2)cc1)c1cccc2cnccc12 [Compound 76]
- MIC ([1]; Escherichia coli, W3110, WT): > 50 µM
- MIC ([1]; WT): >50 µM
- MIC [2, 4]: > 50 µM
- MIC ([2]; broth microdilution): >50 µM

Compound: O=S(=O)(NCCNCc1ccc(-c2cccnc2)cc1)c1ccnc2[nH]ccc12 [Compound 54]
- MIC ([1]; Escherichia coli, W3110, WT): > 50 µM
- MIC ([1]; WT): >50 µM
- MIC [2, 4]: > 50 µM
- MIC ([2]; broth microdilution): >50 µM

Compound: CO[C@H]1/C=C/O[C@@]2(C)Oc3c(C)c(O)c4c(O)c(c(/C=N/N5CCN(C)CC5)c(O)c4c3C2=O)NC(=O)/C(C)=C\C=C\[C@H](C)[C@H](O)[C@@H](C)[C@@H](O)[C@@H](C)[C@H](OC(C)=O)[C@@H]1C [RIF, rifampicin, reference compound]
- DAPI circularity [3]: 0.637 ± 0.019
- DAPI nucleoid area [3]: 4.992 ± 0.606
- DAPI nucleoids [3]: 1.120 ± 0.069
- DAPI perimeter [3]: 9.927 ± 0.636
- DAPI roundness [3]: 0.408 ± 0.029
- DAPI solidity [3]: 0.918 ± 0.003
- DAPI total area [3]: 5.402 ± 0.548
- DIC area [3]: 5.883 ± 0.716
- DIC circularity [3]: 0.642 ± 0.053
- DIC curvature [3]: 0.092 ± 0.018
- DIC feret [3]: 4.608 ± 0.076
- DIC length [3]: 4.635 ± 0.073
- DIC roundness [3]: 0.370 ± 0.047
- DIC sinuosity [3]: 1.017 ± 0.003
- DIC solidity [3]: 0.956 ± 0.014
- DIC width [3]: 1.327 ± 0.161
- Decondensation [3]: 0.922 ± 0.075
- DIC angularity [3]: 0.101 ± 0.016
- DAPI intensity [3]: 0.704 ± 0.260
- SYTOX Green intensity [3]: 2.120 ± 0.434

Compound: O=S(=O)(NCCNCc1ccc(-c2ccccc2)c(F)c1)c1cccc2cnccc12 [Compound 88]
- MIC ([1]; Escherichia coli, W3110, WT): 12.5 µM (≈ 5.44 µg/mL)
- MIC [2, 4]: 25 µM (≈ 10.9 µg/mL)

Compound: O=C(NCCNS(=O)(=O)c1cccc2cnccc12)c1ccc(-c2cccnc2)cc1 [Compound 93]
- MIC ([1]; Escherichia coli, W3110, WT): > 50 µM
- MIC ([1]; WT): >50 µM
- antimicrobial activity [1]: abolished all activity
- MIC [2, 4]: > 50 µM
- MIC ([2]; broth microdilution): >50 µM

Compound: O=S(=O)(NCCNCc1ccc(-c2ccc(F)cc2)c(Cl)c1)c1cccc2cnccc12 [Compound 86]
- MIC ([1]; Escherichia coli, W3110, WT): 50 µM (≈ 23.5 µg/mL)
- MIC [2, 4]: > 50 µM
- MIC ([2]; broth microdilution): >50 µM

Compound: O=S(=O)(NCCNCc1ccc(-c2cccnc2)c(Cl)c1)c1cccc2cnccc12 [Compound 83]
- MIC ([1]; Escherichia coli, W3110, WT): > 50 µM
- MIC ([1]; WT): >50 µM
- MIC [2, 4]: > 50 µM
- MIC ([2]; broth microdilution): >50 µM

Compound: O=S(=O)(NCCNCc1ccc(-c2cccnc2)cc1)c1cccc2[nH]ncc12 [Compound 49]
- MIC ([1]; Escherichia coli, W3110, WT): > 50 µM
- MIC ([1]; WT): >50 µM
- MIC [2, 4]: > 50 µM
- MIC ([2]; broth microdilution): >50 µM

Compound: O=S(=O)(NCCNCc1ccc(-c2cccnc2)cc1)c1cccc2ccccc12 [Compound 47]
- MIC ([1]; Escherichia coli, W3110, WT): 25 µM (≈ 10.4 µg/mL)
- antimicrobial activity [1]: fourfold reduced activity
- MIC [2, 4]: > 50 µM
- MIC ([2]; broth microdilution): 50 µM (≈ 20.9 µg/mL)

Compound: CC1(C)S[C@@H]2[C@H](NC(=O)[C@H](N)c3ccccc3)C(=O)N2[C@H]1C(=O)O [AMP, ampicillin, reference compound]
- DAPI circularity [3]: 0.173 ± 0.043
- DAPI nucleoid area [3]: 9.445 ± 2.853
- DAPI nucleoids [3]: 2.583 ± 0.910
- DAPI perimeter [3]: 30.886 ± 6.792
- DAPI roundness [3]: 0.108 ± 0.020
- DAPI solidity [3]: 0.603 ± 0.036
- DAPI total area [3]: 19.710 ± 4.300
- DIC area [3]: 31.597 ± 3.284
- DIC circularity [3]: 0.144 ± 0.015
- DIC curvature [3]: 0.024 ± 0.004
- DIC feret [3]: 26.883 ± 3.012
- DIC length [3]: 27.774 ± 3.16
- DIC perimeter [3]: 56.849 ± 6.297
- DIC roundness [3]: 0.066 ± 0.008
- DIC sinuosity [3]: 1.033 ± 0.002
- DIC solidity [3]: 0.538 ± 0.044
- DIC width [3]: 1.143 ± 0.051
- Decondensation [3]: 0.619 ± 0.078
- DIC angularity [3]: 0.069 ± 0.009
- DAPI intensity [3]: 1.490 ± 0.410
- SYTOX Green intensity [3]: 1.901 ± 0.246
